Reference: ChEMBL document CHEMBL3885881, “DrugMatrix”

Species on record: Rattus norvegicus
Experiment: DrugMatrix - Regimen: Daily Repeat
Type: toxicity, organism-based, Sprague-Dawley
Parameters: regimen Daily Repeat, gender Male, age 6-8 weeks
Conditions: in vivo, po, route oral GAVAGE, vehicle .5 % CMC; for BASOPHIL / EOSINOPHIL / ERYTHROCYTE COUNT / HEMATOCRIT / HEMOGLOBIN / LEUKOCYTE COUNT / LYMPHOCYTE / MEAN CORPUSCULAR HEMOGLOBIN / MEAN CORPUSCULAR HEMOGLOBIN CONCENTRATION / MEAN CORPUSCULAR VOLUME / MONOCYTE / NEUTROPHIL / PLATELET COUNT: tissue Blood; for ALANINE AMINOTRANSFERASE / ALBUMIN / ALKALINE PHOSPHATASE / ASPARTATE AMINOTRANSFERASE / BLOOD UREA NITROGEN / CARBON DIOXIDE / CHLORIDE / CHOLESTEROL / CREATINE PHOSPHOKINASE / CREATININE / GLUCOSE / LACTATE DEHYDROGENASE / LIPASE / PHOSPHORUS / POTASSIUM / SODIUM / TOTAL BILIRUBIN / TOTAL PROTEIN / URIC ACID: tissue Plasma
[1] = 0 mg/kg, 72 h, dose level Control, time 3 day
[2] = 0 mg/kg, 120 h, dose level Control, time 5 day
[3] = 0 mg/kg, […], dose level Control, time 14 day
[4] = 82 mg/kg, 72 h, dose level High, time 3 day
[5] = 82 mg/kg, 120 h, dose level High, time 5 day
[6] = 82 mg/kg, […], dose level High, time 14 day

## CCOP(=S)(OCC)Oc1nc(Cl)c(Cl)cc1Cl [CHLORPYRIFOS]
[1]
  BASOPHIL: 0.62%
  EOSINOPHIL: 0.52%
  ERYTHROCYTE COUNT: 6.33 x10E6/uL
  HEMATOCRIT: 41.88%
  HEMOGLOBIN: 13.52 G/DL
  LEUKOCYTE COUNT: 11.39 x10E3/uL
  LYMPHOCYTE: 86.18%
  MEAN CORPUSCULAR HEMOGLOBIN: 21.35 pg
  MEAN CORPUSCULAR HEMOGLOBIN CONCENTRATION: 32.23 G/DL
  MEAN CORPUSCULAR VOLUME: 66.25 fL
  MONOCYTE: 1.93%
  NEUTROPHIL: 9.1%
  PLATELET COUNT: 1204.5 x10E3/uL
  ALANINE AMINOTRANSFERASE: 43 u/L
  ALBUMIN: 4.08 G/DL
  ALKALINE PHOSPHATASE: 426.33 u/L
  ASPARTATE AMINOTRANSFERASE: 72.5 u/L
  BLOOD UREA NITROGEN: 16.67 mg/dL
  CARBON DIOXIDE: 28.33 mmol/L
  CHLORIDE: 103.5 MEQ/L
  CHOLESTEROL: 78.83 mg/dL
  CREATINE PHOSPHOKINASE: 325.67 u/L
  CREATININE: 0.48 mg/dL
  GLUCOSE: 171.67 mg/dL
  LACTATE DEHYDROGENASE: 107.33 u/L
  LIPASE: 11.83 u/L
  PHOSPHORUS: 12.55 mg/dL
  POTASSIUM: 6.57 MEQ/L
  SODIUM: 145.67 MEQ/L
  TOTAL BILIRUBIN: 0.42 mg/dL
  TOTAL PROTEIN: 6.1 G/DL
  URIC ACID: 1.57 mg/dL
[2]
  BASOPHIL: 0.48%
  EOSINOPHIL: 0.67%
  ERYTHROCYTE COUNT: 6.69 x10E6/uL
  HEMATOCRIT: 44.17%
  HEMOGLOBIN: 13.78 G/DL
  LEUKOCYTE COUNT: 7.86 x10E3/uL
  LYMPHOCYTE: 85.9%
  MEAN CORPUSCULAR HEMOGLOBIN: 20.6 pg
  MEAN CORPUSCULAR HEMOGLOBIN CONCENTRATION: 31.25 G/DL
  MEAN CORPUSCULAR VOLUME: 65.9 fL
  MONOCYTE: 3.27%
  NEUTROPHIL: 8.67%
  PLATELET COUNT: 1182.33 x10E3/uL
  ALANINE AMINOTRANSFERASE: 37.5 u/L
  ALBUMIN: 4 G/DL
  ALKALINE PHOSPHATASE: 348.17 u/L
  ASPARTATE AMINOTRANSFERASE: 71.67 u/L
  BLOOD UREA NITROGEN: 13 mg/dL
  CARBON DIOXIDE: 27 mmol/L
  CHLORIDE: 104.67 MEQ/L
  CHOLESTEROL: 73.33 mg/dL
  CREATINE PHOSPHOKINASE: 211.33 u/L
  CREATININE: 0.23 mg/dL
  GLUCOSE: 155 mg/dL
  LACTATE DEHYDROGENASE: 133.83 u/L
  LIPASE: 11.17 u/L
  PHOSPHORUS: 14.53 mg/dL
  POTASSIUM: 6.65 MEQ/L
  SODIUM: 148.17 MEQ/L
  TOTAL BILIRUBIN: 0.28 mg/dL
  TOTAL PROTEIN: 6.22 G/DL
  URIC ACID: 1.57 mg/dL
[3]
  BASOPHIL: 0.97%
  EOSINOPHIL: 0.8%
  ERYTHROCYTE COUNT: 7.02 x10E6/uL
  HEMATOCRIT: 44.43%
  HEMOGLOBIN: 14.58 G/DL
  LEUKOCYTE COUNT: 16.49 x10E3/uL
  LYMPHOCYTE: 79.03%
  MEAN CORPUSCULAR HEMOGLOBIN: 20.85 pg
  MEAN CORPUSCULAR HEMOGLOBIN CONCENTRATION: 32.78 G/DL
  MEAN CORPUSCULAR VOLUME: 63.57 fL
  MONOCYTE: 1.9%
  NEUTROPHIL: 15.18%
  PLATELET COUNT: 1184.33 x10E3/uL
  ALANINE AMINOTRANSFERASE: 43 u/L
  ALBUMIN: 4.25 G/DL
  ALKALINE PHOSPHATASE: 409.67 u/L
  ASPARTATE AMINOTRANSFERASE: 84.17 u/L
  BLOOD UREA NITROGEN: 16 mg/dL
  CARBON DIOXIDE: 35.17 mmol/L
  CHLORIDE: 99.83 MEQ/L
  CHOLESTEROL: 68.67 mg/dL
  CREATINE PHOSPHOKINASE: 384.17 u/L
  CREATININE: 0.43 mg/dL
  GLUCOSE: 160 mg/dL
  LACTATE DEHYDROGENASE: 115.33 u/L
  LIPASE: 17.33 u/L
  PHOSPHORUS: 10.68 mg/dL
  POTASSIUM: 6.48 MEQ/L
  SODIUM: 148.17 MEQ/L
  TOTAL BILIRUBIN: 0.45 mg/dL
  TOTAL PROTEIN: 6.57 G/DL
  URIC ACID: 1.78 mg/dL
[4]
  BASOPHIL: 0.9%
  EOSINOPHIL: 0.43%
  ERYTHROCYTE COUNT: 6.87 x10E6/uL
  HEMATOCRIT: 44.5%
  HEMOGLOBIN: 14.33 G/DL
  LEUKOCYTE COUNT: 11.45 x10E3/uL
  LYMPHOCYTE: 88.3%
  MEAN CORPUSCULAR HEMOGLOBIN: 20.9 pg
  MEAN CORPUSCULAR HEMOGLOBIN CONCENTRATION: 32.27 G/DL
  MEAN CORPUSCULAR VOLUME: 64.87 fL
  MONOCYTE: 1.27%
  NEUTROPHIL: 7.87%
  PLATELET COUNT: 1233 x10E3/uL
  ALANINE AMINOTRANSFERASE: 42 u/L
  ALBUMIN: 4.03 G/DL
  ALKALINE PHOSPHATASE: 285.67 u/L
  ASPARTATE AMINOTRANSFERASE: 78.33 u/L
  BLOOD UREA NITROGEN: 15.33 mg/dL
  CARBON DIOXIDE: 30.33 mmol/L
  CHLORIDE: 103.67 MEQ/L
  CHOLESTEROL: 47 mg/dL
  CREATINE PHOSPHOKINASE: 263.33 u/L
  CREATININE: 0.5 mg/dL
  GLUCOSE: 170 mg/dL
  LACTATE DEHYDROGENASE: 57.67 u/L
  LIPASE: 11 u/L
  PHOSPHORUS: 13.43 mg/dL
  POTASSIUM: 7.33 MEQ/L
  SODIUM: 146 MEQ/L
  TOTAL BILIRUBIN: 0.37 mg/dL
  TOTAL PROTEIN: 5.93 G/DL
  URIC ACID: 1.53 mg/dL
[5]
  BASOPHIL: 0.33%
  EOSINOPHIL: 0.5%
  ERYTHROCYTE COUNT: 7.39 x10E6/uL
  HEMATOCRIT: 47.37%
  HEMOGLOBIN: 15.03 G/DL
  LEUKOCYTE COUNT: 10.09 x10E3/uL
  LYMPHOCYTE: 72.77%
  MEAN CORPUSCULAR HEMOGLOBIN: 20.37 pg
  MEAN CORPUSCULAR HEMOGLOBIN CONCENTRATION: 31.73 G/DL
  MEAN CORPUSCULAR VOLUME: 64.2 fL
  MONOCYTE: 4.53%
  NEUTROPHIL: 20.93%
  PLATELET COUNT: 1284.67 x10E3/uL
  ALANINE AMINOTRANSFERASE: 55.33 u/L
  ALBUMIN: 3.9 G/DL
  ALKALINE PHOSPHATASE: 305.67 u/L
  ASPARTATE AMINOTRANSFERASE: 236.67 u/L
  BLOOD UREA NITROGEN: 13 mg/dL
  CARBON DIOXIDE: 28.33 mmol/L
  CHLORIDE: 103.67 MEQ/L
  CHOLESTEROL: 44.67 mg/dL
  CREATINE PHOSPHOKINASE: 186.67 u/L
  CREATININE: 0.33 mg/dL
  GLUCOSE: 139.33 mg/dL
  LACTATE DEHYDROGENASE: 62.67 u/L
  LIPASE: 8 u/L
  PHOSPHORUS: 12.8 mg/dL
  POTASSIUM: 6 MEQ/L
  SODIUM: 148 MEQ/L
  TOTAL BILIRUBIN: 0.27 mg/dL
  TOTAL PROTEIN: 6 G/DL
  URIC ACID: 1.63 mg/dL
[6]
  BASOPHIL: 0.37%
  EOSINOPHIL: 0.67%
  ERYTHROCYTE COUNT: 7.6 x10E6/uL
  HEMATOCRIT: 45.9%
  HEMOGLOBIN: 15.3 G/DL
  LEUKOCYTE COUNT: 16.12 x10E3/uL
  LYMPHOCYTE: 84.43%
  MEAN CORPUSCULAR HEMOGLOBIN: 20.2 pg
  MEAN CORPUSCULAR HEMOGLOBIN CONCENTRATION: 33.37 G/DL
  MEAN CORPUSCULAR VOLUME: 60.43 fL
  MONOCYTE: 1.7%
  NEUTROPHIL: 11.33%
  PLATELET COUNT: 1183 x10E3/uL
  ALANINE AMINOTRANSFERASE: 46 u/L
  ALBUMIN: 4.3 G/DL
  ALKALINE PHOSPHATASE: 329.67 u/L
  ASPARTATE AMINOTRANSFERASE: 114 u/L
  BLOOD UREA NITROGEN: 16.33 mg/dL
  CARBON DIOXIDE: 26.67 mmol/L
  CHLORIDE: 101 MEQ/L
  CHOLESTEROL: 72 mg/dL
  CREATINE PHOSPHOKINASE: 262 u/L
  CREATININE: 0.43 mg/dL
  GLUCOSE: 144 mg/dL
  LACTATE DEHYDROGENASE: 145.67 u/L
  LIPASE: 9 u/L
  PHOSPHORUS: 10.07 mg/dL
  POTASSIUM: 6.2 MEQ/L
  SODIUM: 149 MEQ/L
  TOTAL BILIRUBIN: 0.4 mg/dL
  URIC ACID: 1.8 mg/dL
